Test results published in ChEMBL document CHEMBL3301361, “Experimental in vitro DMPK and physicochemical data on a set of publicly disclosed compounds”.
Converted amounts (≈) assume the structure as drawn.

Experiment: physchem
Conditions: octan-1-ol/water, pH 7.4

Compound | logD
CC(=O)Nc1nc(-c2cccs2)cs1 | 2.77
CC(=O)Nc1nc(-c2ccccc2)ns1 | 2.8
Cc1cc(=O)oc2cc3c(cc12)CCCN3 | 2.7
O=C(NCc1ccncc1)c1ccc(Oc2ccc(C#C[C@]3(O)CN4CCC3CC4)cc2)cc1 | 2.42
Cc1ccn2c(NC(=O)c3ccccc3)c(-c3cccs3)nc2c1 | 2.87
O=C(NCc1ccncc1)c1ccc(Oc2ccc(C#CC3(O)CN4CCC3CC4)cc2)cc1 (stereo not drawn) | 2.48
O=C(NCc1ccncc1)c1ccc(Oc2ccc(C#C[C@@]3(O)CN4CCC3CC4)cc2)cc1 | 2.31
COc1ccc(-c2csc(NC(=O)c3c(C)noc3C)n2)cc1OC | 3.16
CC12CCC(=O)C=C1CCC1C2CCC2(C)C(O)CCC12 (stereo not drawn) | 3.3

Experiment: physchem
Conditions: pH 7.4 buffer

Compound | solubility thermodynamic
O=S(=O)(NCCNC/C=C/c1ccc(Br)cc1)c1cccc2cnccc12 | 61.7 µM (≈ 27.5 µg/mL)
CC(C)Oc1cccc(NC(=O)c2ccc3cc(C(=N)N)ccc3c2)c1 | 64.6 µM (≈ 22.4 µg/mL)
COc1cccc(C(=O)N2CCC(C(=O)c3ccc(F)cc3)CC2)c1 | 58.9 µM (≈ 20.1 µg/mL)
O=c1cc(CN2CCOCC2)occ1OCCCCCSc1ccnc2cc(C(F)(F)F)ccc12 | 77.6 µM (≈ 39.5 µg/mL)
CC(=O)Nc1nc(-c2cccs2)cs1 | 100 µM (≈ 22.4 µg/mL)
CC(=O)Nc1nc(-c2ccccc2)ns1 | 182 µM (≈ 39.9 µg/mL)
Cc1cc(=O)oc2cc3c(cc12)CCCN3 | 13.8 µM (≈ 2.97 µg/mL)
O=C(c1ccccc1)C1CCN(C(=O)c2cccs2)CC1 | 79.4 µM (≈ 23.8 µg/mL)
Cc1cnc(NC(=O)CSc2nnc(C)s2)s1 | 70.8 µM (≈ 20.3 µg/mL)
COc1ccc(-c2cnn(C3CCS(=O)(=O)C3)c2N)cc1 (stereo not drawn) | 81.3 µM (≈ 25 µg/mL)
COc1ccc(Cl)c(Nc2ncnc3cc(OCCCN4CCOCC4)c(OC)cc23)c1 | 72.4 µM (≈ 33.2 µg/mL)
O=C(NCc1ccncc1)c1ccc(Oc2ccc(C#C[C@]3(O)CN4CCC3CC4)cc2)cc1 | 302 µM (≈ 137 µg/mL)
Cc1ccn2c(NC(=O)c3ccccc3)c(-c3cccs3)nc2c1 | 1.1 µM (≈ 0.367 µg/mL)
O=C(NCc1ccncc1)c1ccc(Oc2ccc(C#CC3(O)CN4CCC3CC4)cc2)cc1 (stereo not drawn) | 269 µM (≈ 122 µg/mL)
O=C(NCc1ccncc1)c1ccc(Oc2ccc(C#C[C@@]3(O)CN4CCC3CC4)cc2)cc1 | 107 µM (≈ 48.6 µg/mL)
COc1ccc(N2CCNCC2)cc1Nc1ncc(Cl)c(-c2cnc3ccccn23)n1 | 69.2 µM (≈ 30.2 µg/mL)
O=C(Nc1cccc(O)c1)c1ccc(OCCCN2CCCC2)cc1OC1CCCC1 | 58.9 µM (≈ 25 µg/mL)
O=C(Nc1ccccc1)c1ccc(OCCCN2CCCC2)cc1OCc1ccccc1 | 61.7 µM (≈ 26.6 µg/mL)
CCN(C(=O)NCc1cccc(C)c1)C1CCN(CCC(c2ccccc2)c2ccccc2)CC1 | 70.8 µM (≈ 33.3 µg/mL)
CC(C)Oc1cc(OCc2ccccc2F)cc(C(=O)Nc2ccc(C(=O)O)cn2)c1 | 61.7 µM (≈ 26.2 µg/mL)
COc1cccc(NC(=O)Cn2cc(Oc3ccnc4cc(OC)c(OC)cc34)cn2)c1 | 66.1 µM (≈ 28.7 µg/mL)
CCN(C(=O)Cc1ccc(S(C)(=O)=O)cc1)C1CCN(CC[C@@H](c2ccccc2)C2CCN(S(=O)(=O)C(F)(F)F)CC2)CC1 | 56.2 µM (≈ 37 µg/mL)

Compound | solubility thermodynamic
CN(C(=O)Cc1ccc(S(C)(=O)=O)cc1F)C1CCN(Cc2ccc(C(F)(F)F)cc2)CC1 | 74.1 µM (≈ 36.1 µg/mL)
CO[C@@H]1CN(Cc2ccc(C(F)(F)F)cc2)CC[C@@H]1N(C)C(=O)Cc1ccc(-n2cnnn2)cc1 | 75.9 µM (≈ 37.1 µg/mL)
COc1cc2ncnc(Nc3cccc(Cl)c3F)c2cc1CN(C)C1(C(N)=O)CN(C)C1 | 51.3 µM (≈ 23.5 µg/mL)
NC(=O)Nc1sc(-c2ccc(Cl)c(Cl)c2)cc1C(=O)N[C@H]1CCCNC1 | 66.1 µM (≈ 27.3 µg/mL)
CC(C)(C)OC(=O)N1CCC(c2ncc(OCc3ccc(S(C)(=O)=O)cc3)cn2)CC1 | 61.7 µM (≈ 27.6 µg/mL)
COc1ccc(NCc2ccc(C(=O)Nc3ccccc3N)cc2)cc1OC | 57.5 µM (≈ 21.7 µg/mL)
COc1ccc(-c2csc(NC(=O)c3c(C)noc3C)n2)cc1OC | 2 µM (≈ 0.719 µg/mL)
CCCSc1ncccc1C(=O)NC1CCCCC1 | 81.3 µM (≈ 22.6 µg/mL)
CC(C)(C)[C@@H](C#N)NC(=O)[C@@H]1CCCC[C@H]1C(=O)N1CCc2[nH]c3ccc(F)cc3c2C1 | 74.1 µM (≈ 32.5 µg/mL)
N#CC1(NC(=O)[C@@H]2CCCC[C@H]2C(=O)N2CCc3[nH]c4ccc(C(F)(F)F)cc4c3C2)CC1 | 74.1 µM (≈ 34 µg/mL)
Cc1cc(C)cc(-c2[nH]c3sc(C(C)(C)C(=O)N4C5CCC4CC5)cc3c2C(=O)CN2CCN(CC(=O)N3CCCC3)CC2)c1 | 70.8 µM (≈ 44.6 µg/mL)
NC(=O)Nc1sc(-c2ccc(F)cc2)cc1C(N)=O | 67.6 µM (≈ 18.9 µg/mL)
CC12CCC(=O)C=C1CCC1C2CCC2(C)C(O)CCC12 (stereo not drawn) | 40.7 µM (≈ 11.7 µg/mL)
CC(=O)Nc1ccc(-c2ccccc2)cc1 | 79.4 µM (≈ 16.8 µg/mL)
O=C(O)c1cc2c(Cl)cccc2n1Cc1ccc(Cl)c(Cl)c1 | 66.1 µM (≈ 23.4 µg/mL)
N=C(N)Nc1nc(-c2cccc(O)c2)cs1 | 79.4 µM (≈ 18.6 µg/mL)
COc1cc2c(Nc3c(Cl)ccc4c3OCO4)ncnc2cc1OCCCN1CCOCC1 | 70.8 µM (≈ 33.5 µg/mL)
COc1cc2ncnc(Nc3cccc(Cl)c3F)c2cc1CN1CC[C@H](C(N)=O)C1 | 77.6 µM (≈ 33.4 µg/mL)
COc1ccc(OC)c(NC(=O)Cc2cccs2)c1 | 74.1 µM (≈ 20.6 µg/mL)
Cc1cc(C)cc(-c2[nH]c3sc(C(C)(C)C(=O)N4C5CCC4CC5)cc3c2C(=O)CN2CCC(C(=O)N3CCOCC3)CC2)c1 | 72.4 µM (≈ 45.7 µg/mL)
CC(C)CCn1c(Cn2c(=O)n(C3CC3)c(=O)c3ccccc32)nc2cc(CN)ccc21 | 70.8 µM (≈ 30.6 µg/mL)
COC1CCN(C(=O)C2CCN(CCc3c(-c4cc(C)cc(C)c4)[nH]c4sc(C(C)(C)C(=O)N5C6CCC5CC6)cc34)CC2)C1 (stereo not drawn) | 70.8 µM (≈ 44.7 µg/mL)
